# Columns and labels:
# human recombinant FAAH = human recombinant FAAH (Homo sapiens (Human), UniProt O00519); assay: In vitro inhibition of FAAH activity (fluorescent inhibitor screening kit, AMC arachidonoyl amide); assay type: biochemical; conditions: human recombinant FAAH; read-out: Inhibition on FAAH activity (IC50)
# Procedure, shortened: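 Fluorogenic kit assay: AMC arachidonoyl amide is cleaved by human recombinant FAAH, read at 340-360/450-465 nm. Percent inhibition versus non-treated control; IC50 values derived from multiple compound concentrations where tested.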
# human recombinant MAGL = human recombinant MAGL (Homo sapiens (Human), UniProt Q99685); assay: In vitro inhibition of MAGL activity (inhibitor screening kit, 4-nitrophenylacetate); assay type: biochemical; conditions: human recombinant MAGL
# Procedure, shortened: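 Percent inhibition derived from absorbance (405-412 nm) of treated wells relative to untreated enzyme control. Human recombinant MAGL with 4-nitrophenylacetate substrate, whose cleavage yields yellow 4-nitrophenol.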
# Chain of human recombinant MAGL (Q99685 whole entry): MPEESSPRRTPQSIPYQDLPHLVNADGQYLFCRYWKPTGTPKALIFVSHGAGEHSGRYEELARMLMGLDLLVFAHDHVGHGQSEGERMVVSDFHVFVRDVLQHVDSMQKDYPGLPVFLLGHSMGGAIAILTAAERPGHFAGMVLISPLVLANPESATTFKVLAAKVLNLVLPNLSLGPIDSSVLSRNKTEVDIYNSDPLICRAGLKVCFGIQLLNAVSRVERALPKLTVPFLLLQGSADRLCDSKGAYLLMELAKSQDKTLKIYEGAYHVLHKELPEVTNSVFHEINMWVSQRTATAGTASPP
# Chain of human recombinant FAAH (O00519 whole entry): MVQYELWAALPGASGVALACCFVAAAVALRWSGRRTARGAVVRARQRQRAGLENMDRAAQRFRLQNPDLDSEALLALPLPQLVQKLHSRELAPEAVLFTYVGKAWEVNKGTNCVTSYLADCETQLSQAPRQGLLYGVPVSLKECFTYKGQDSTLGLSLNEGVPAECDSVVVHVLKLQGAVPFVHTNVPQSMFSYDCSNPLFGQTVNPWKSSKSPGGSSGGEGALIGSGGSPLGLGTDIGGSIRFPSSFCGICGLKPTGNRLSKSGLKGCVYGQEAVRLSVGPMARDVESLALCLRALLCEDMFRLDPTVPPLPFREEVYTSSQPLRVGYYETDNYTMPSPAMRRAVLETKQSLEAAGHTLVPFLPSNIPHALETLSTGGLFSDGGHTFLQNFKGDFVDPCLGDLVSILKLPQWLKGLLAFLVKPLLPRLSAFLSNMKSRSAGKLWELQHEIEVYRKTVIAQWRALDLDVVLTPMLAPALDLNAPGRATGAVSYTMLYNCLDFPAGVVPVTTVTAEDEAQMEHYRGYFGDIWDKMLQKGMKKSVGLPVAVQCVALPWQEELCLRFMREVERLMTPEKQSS
SMILES,IC50 (human recombinant FAAH),IC50 (human recombinant MAGL)
"CC1CCC(NC(=O)Oc2ccc(F)c(-c3cncc(-c4nnco4)c3)c2)CC1 (stereo not shown) [Example 193, 3-(5-(1,3,4-oxadiazol-2-yl)pyridin-3-yl)-4-fluorophenyl (4-methylcyclohexyl)carbamate]",0.01 to 0.1 µM,> 10 µM
"CCCCCCCCNC(=O)Oc1cc(F)cc(-c2cncc(-c3nnco3)c2)c1 [Example 195, 3-(5-(1,3,4-oxadiazol-2-yl)pyridin-3-yl)-5-fluorophenyl octylcarbamate]",0.001 to 0.01 µM,~1 µM
"O=C(NCc1ccccc1)Oc1cc(F)cc(-c2cncc(-c3nnco3)c2)c1 [Example 196, 3-(5-(1,3,4-oxadiazol-2-yl)pyridin-3-yl)-5-fluorophenyl benzylcarbamate]",> 1 µM,~10 µM
"O=C(NC1CCCCC1)Oc1cc(F)cc(-c2cncc(-c3nnco3)c2)c1 [Example 197, 3-(5-(1,3,4-oxadiazol-2-yl)pyridin-3-yl)-5-fluorophenyl cyclohexylcarbamate]",0.1 to 1 µM,> 10 µM
"CCCCCCCCNC(=O)Oc1ccc(OC(F)(F)F)c(-c2cncc(-c3nnco3)c2)c1 [Example 199, 3-(5-(1,3,4-oxadiazol-2-yl)pyridin-3-yl)-4-(trifluoromethoxy)phenyl octylcarbamate]",0.01 to 0.1 µM,1 to 10 µM
"O=C(NC1CCCCC1)Oc1ccc(OC(F)(F)F)c(-c2cncc(-c3nnco3)c2)c1 [Example 200, 3-(5-(1,3,4-oxadiazol-2-yl)pyridin-3-yl)-4-(trifluoromethoxy)phenyl cyclohexylcarbamate]",0.1 to 1 µM,> 10 µM
CC1CCC(NC(=O)Oc2ccc(OC(F)(F)F)c(-c3cncc(-c4nnco4)c3)c2)CC1 (stereo not shown) [Example 201],0.1 to 1 µM,> 1 µM
"O=C(NC1CCCCCC1)Oc1ccc(OC(F)(F)F)c(-c2cncc(-c3nnco3)c2)c1 [Example 202, 3-(5-(1,3,4-oxadiazol-2-yl)pyridin-3-yl)-4-(trifluoromethoxy)phenyl cycloheptylcarbamate]",0.1 to 1 µM,> 10 µM
"O=C(Nc1ccccc1)Oc1ccc(OC(F)(F)F)c(-c2cncc(-c3nnco3)c2)c1 [Example 203, 3-(5-(1,3,4-oxadiazol-2-yl)pyridin-3-yl)-4-(trifluoromethoxy)phenyl phenylcarbamate]",> 1 µM,> 10 µM
"O=C(NCC1CCCCC1)Oc1cccc(-c2cncc(-c3ncno3)c2)c1 [Example 204, 3-(5-(1,2,4-oxadiazol-5-yl)pyridin-3-yl)phenyl (cyclohexylmethyl)carbamate]",0.01 to 0.1 µM,> 10 µM
"O=C(NC1CCCCC1)Oc1cccc(-c2cncc(-c3ncno3)c2)c1 [Example 205, 3-(5-(1,2,4-oxadiazol-5-yl)pyridin-3-yl)phenyl cyclohexylcarbamate]",0.01 to 0.1 µM,> 10 µM
"O=C(NC1CCCCCC1)Oc1cccc(-c2cncc(-c3ncno3)c2)c1 [Example 206, 3-(5-(1,2,4-oxadiazol-5-yl)pyridin-3-yl)phenyl cycloheptylcarbamate]",0.01 to 0.1 µM,> 10 µM
"CCCCCCCCNC(=O)Oc1cccc(-c2cncc(-c3nncs3)c2)c1 [Example 207, 3-(5-(1,3,4-thiadiazol-2-yl)pyridin-3-yl)phenyl octylcarbamate]",0.001 to 0.01 µM,~10 µM
"O=C(NCC1CCCCC1)Oc1cccc(-c2cncc(-c3nncs3)c2)c1 [Example 208, 3-(5-(1,3,4-thiadiazol-2-yl)pyridin-3-yl)phenyl (cyclohexylmethyl)carbamate]",0.01 to 0.1 µM,> 10 µM
"O=C(NCc1ccccc1)Oc1cccc(-c2cncc(-c3nncs3)c2)c1 [Example 209, 3-(5-(1,3,4-thiadiazol-2-yl)pyridin-3-yl)phenyl benzylcarbamate]",~0.1 µM,> 10 µM
"O=C(NC1CCCC1)Oc1cccc(-c2cncc(-c3nncs3)c2)c1 [Example 210, 3-(5-(1,3,4-thiadiazol-2-yl)pyridin-3-yl)phenyl cyclopentylcarbamate]",~0.1 µM,> 10 µM
"O=C(NC1CCCCC1)Oc1cccc(-c2cncc(-c3nncs3)c2)c1 [Example 211, 3-(5-(1,3,4-thiadiazol-2-yl)pyridin-3-yl)phenyl cyclohexylcarbamate]",> 1 µM,> 10 µM
"O=C(NC1CCCCCC1)Oc1cccc(-c2cncc(-c3nncs3)c2)c1 [Example 212, 3-(5-(1,3,4-thiadiazol-2-yl)pyridin-3-yl)phenyl cycloheptylcarbamate]",0.01 to 0.1 µM,> 10 µM
"CCCCCCCCNC(=O)Oc1ccc(OC)c(-c2cncc(-c3nncs3)c2)c1 [Example 213, 3-(5-(1,3,4-thiadiazol-2-yl)pyridin-3-yl)-4-methoxyphenyl octylcarbamate]",0.001 to 0.01 µM,~10 µM

SMILES,IC50 (human recombinant FAAH),IC50 (human recombinant MAGL)
"COc1ccc(OC(=O)NCC2CCCCC2)cc1-c1cncc(-c2nncs2)c1 [Example 214, 3-(5-(1,3,4-thiadiazol-2-yl)pyridin-3-yl)-4-methoxyphenyl (cyclohexylmethyl)carbamate]",0.01 to 0.1 µM,> 10 µM
"COc1ccc(OC(=O)NCc2ccccc2)cc1-c1cncc(-c2nncs2)c1 [Example 215, 3-(5-(1,3,4-thiadiazol-2-yl)pyridin-3-yl)-4-methoxyphenyl benzylcarbamate]",0.1 to 1 µM,> 10 µM
"COc1ccc(OC(=O)NC2CCCC2)cc1-c1cncc(-c2nncs2)c1 [Example 216, 3-(5-(1,3,4-thiadiazol-2-yl)pyridin-3-yl)-4-methoxyphenyl cyclopentylcarbamate]",0.1 to 1 µM,> 10 µM
"COc1ccc(OC(=O)NC2CCCCCC2)cc1-c1cncc(-c2nncs2)c1 [Example 218, 3-(5-(1,3,4-thiadiazol-2-yl)pyridin-3-yl)-4-methoxyphenyl cycloheptylcarbamate]",0.01 to 0.1 µM,> 10 µM
"CCCCCCCCNC(=O)Oc1cccc(-c2cncc(-c3ncn[nH]3)c2)c1 [Example 219, 3-(5-(1H-1,2,4-triazol-5-yl)pyridin-3-yl)phenyl octyl carbamate]",0.001 to 0.01 µM,~10 µM
"O=C(NCC1CCCCC1)Oc1cccc(-c2cncc(-c3ncn[nH]3)c2)c1 [Example 220, 3-(5-(1H-1,2,4-triazol-5-yl)pyridin-3-yl)phenyl (cyclohexylmethyl)carbamate]",0.01 to 0.1 µM,~10 µM
"O=C(NCc1ccccc1)Oc1cccc(-c2cncc(-c3ncn[nH]3)c2)c1 [Example 221, 3-(5-(1H-1,2,4-triazol-5-yl)pyridin-3-yl)phenyl benzyl carbamate]",0.1 to 1 µM,> 10 µM
"O=C(NCc1ccc2ccccc2c1)Oc1cccc(-c2cncc(-c3ncn[nH]3)c2)c1 [Example 222, 3-(5-(1H-1,2,4-triazol-5-yl)pyridin-3-yl)phenyl (naphthalen-2-ylmethyl)carbamate]",0.01 to 0.1 µM,~10 µM
"O=C(NC1CCCC1)Oc1cccc(-c2cncc(-c3ncn[nH]3)c2)c1 [Example 223, 3-(5-(1H-1,2,4-triazol-5-yl)pyridin-3-yl)phenyl cyclopentylcarbamate]",0.1 to 1 µM,> 10 µM
"O=C(NC1CCCCC1)Oc1cccc(-c2cncc(-c3ncn[nH]3)c2)c1 [Example 224, 3-(5-(1H-1,2,4-triazol-5-yl)pyridin-3-yl)phenyl cyclohexylcarbamate]",0.1 to 1 µM,> 10 µM
"CCCCCCCCNC(=O)Oc1ccc(O)c(-c2cncc(-c3ncn[nH]3)c2)c1 [Example 226, 3-(5-(1H-1,2,4-triazol-5-yl)pyridin-3-yl)-4-hydroxyphenyl octyl carbamate]",0.001 to 0.01 µM,> 10 µM
"O=C(NCC1CCCCC1)Oc1ccc(O)c(-c2cncc(-c3ncn[nH]3)c2)c1 [Example 227, 3-(5-(1H-1,2,4-triazol-5-yl)pyridin-3-yl)-4-hydroxyphenyl (cyclohexyl methyl) carbamate]",0.1 to 1 µM,> 10 µM
"O=C(NCc1ccccc1)Oc1ccc(O)c(-c2cncc(-c3ncn[nH]3)c2)c1 [Example 228, 3-(5-(1H-1,2,4-triazol-5-yl)pyridin-3-yl)-4-hydroxyphenyl benzylcarbamate]",0.1 to 1 µM,> 10 µM
"O=C(NC1CCCC1)Oc1ccc(O)c(-c2cncc(-c3ncn[nH]3)c2)c1 [Example 229, 3-(5-(1H-1,2,4-triazol-5-yl)pyridin-3-yl)-4-hydroxyphenyl cyclopentylcarbamate]",0.01 to 0.1 µM,> 10 µM
"O=C(NC1CCCCC1)Oc1ccc(O)c(-c2cncc(-c3ncn[nH]3)c2)c1 [Example 230, 3-(5-(1H-1,2,4-triazol-5-yl)pyridin-3-yl)-4-hydroxyphenyl cyclohexyl carbamate]",0.1 to 1 µM,> 10 µM
"CCCCCCCCNC(=O)Oc1ccc(OC)c(-c2cncc(-c3ncn[nH]3)c2)c1 [Example 232, 3-(5-(1H-1,2,4-triazol-5-yl)pyridin-3-yl)-4-methoxyphenyl octylcarbamate]",0.01 to 0.1 µM,~10 µM
"COc1ccc(OC(=O)NCC2CCCCC2)cc1-c1cncc(-c2ncn[nH]2)c1 [Example 233, 3-(5-(1H-1,2,4-triazol-5-yl)pyridin-3-yl)-4-methoxyphenyl (cyclohexylmethyl) carbamate]",0.1 to 1 µM,~10 µM
"COc1ccc(OC(=O)NCc2ccccc2)cc1-c1cncc(-c2ncn[nH]2)c1 [Example 234, 3-(5-(1H-1,2,4-triazol-5-yl)pyridin-3-yl)-4-methoxyphenyl benzyl carbamate]",> 1 µM,> 10 µM
"COc1ccc(OC(=O)NC2CCCC2)cc1-c1cncc(-c2ncn[nH]2)c1 [Example 235, 3-(5-(1H-1,2,4-triazol-5-yl)pyridin-3-yl)-4-methoxyphenyl cyclopentylcarbamate]",0.1 to 1 µM,> 10 µM

# — patent US20250129027A1 (APOGEE PHARMACEUTICALS, INC., priority 2023, published 2025)
